Laboratory results taken from PubChem BioAssay (NCI).
Where “and” joins values, the source holds several entries; their conditions need not be identical. Equal entries are not always repeated.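 These data come from cells grown in 96-well plates and exposed to compound for 48 hours at five concentrations. At the GI50, growth is halved. TGI denotes the concentration required for complete inhibition of growth.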 Where a SMILES comes first, the peptide text is derived from it. [ ]: non-standard residue; d: D form. Ava = NCCCCC(=O)O; Mpa = O=C(O)CCS

Columns and labels:
Assay in all cases: NCI tumour cell line growth inhibition, 48 h
A498 renal = tested on: A498 renal
ACHN renal = tested on: ACHN renal
BT-549 breast = tested on: BT-549 breast
COLO 205 colon = tested on: COLO 205 colon
LOX IMVI melanoma = tested on: LOX IMVI melanoma
MDA-N = tested on: MDA-N
NCI-H226 lung = tested on: NCI-H226 lung
OVCAR-4 ovarian = tested on: OVCAR-4 ovarian
SF-295 CNS = tested on: SF-295 CNS
SK-MEL-5 melanoma = tested on: SK-MEL-5 melanoma
SR leukemia = tested on: SR leukemia
T-47D breast = tested on: T-47D breast
UACC-62 melanoma = tested on: UACC-62 melanoma
UO-31 renal = tested on: UO-31 renal

SMILES	TGI (A498 renal) [µM]	TGI (ACHN renal) [µM]	TGI (BT-549 breast) [µM]	TGI (COLO 205 colon) [µM]	TGI (LOX IMVI melanoma)	TGI (MDA-N) [µM]	TGI (NCI-H226 lung) [µM]	TGI (OVCAR-4 ovarian)	TGI (SF-295 CNS)	TGI (SK-MEL-5 melanoma)	TGI (SR leukemia) [µM]	TGI (T-47D breast) [µM]	TGI (UACC-62 melanoma)	TGI (UO-31 renal)	GI50 (A498 renal) [µM]	GI50 (SF-295 CNS) [µM]	GI50 (SK-MEL-5 melanoma) [µM]	GI50 (UACC-62 melanoma) [µM]	GI50 (UO-31 renal) [µM]
CCC1c2[nH]c3ccccc3c2C[C@H]2C(=O)NC(C)C(=O)N12 (stereo not given in full)	> 100	> 100	> 100	> 100	> 100 µM	> 100	> 100	> 100 µM	> 100 µM	> 100 µM	> 100	> 100	> 100 µM	> 100 µM	–	–	–	–	–
Cc1nc2c(Cl)cc(Cl)cc2c2c1CCO2	> 100	> 100	> 100	> 100	> 100 µM	> 100	> 100	> 100 µM	> 100 µM	> 100 µM	> 100	> 100	> 100 µM	> 100 µM	–	–	–	–	–
N=C1OC(CN2CCN(c3ccccc3)CC2)CN1C(=O)Nc1ccccc1 (stereo not given)	> 100	> 100	> 100	> 100	> 100 µM	> 100	> 100	> 100 µM	> 100 µM	> 100 µM	> 100	> 100	> 100 µM	> 100 µM	–	–	–	–	–
CCCC(=O)OCC1OC(n2cc(F)c(=O)[nH]c2=O)CC1OC(=O)CCC (stereo not given)	> 9.23	> 10	> 10	> 10	> 10 µM	> 10	> 10	> 10 µM	> 10 µM	2.39 µM	> 10	> 10	> 10 µM	> 10 µM	–	–	–	–	–
O=C(N/N=C\c1ccc(Cl)cc1)Nc1ccc2ccccc2c1	> 100	> 100	> 100	> 100	> 100 µM	> 100	> 100	39.2 µM	–	> 100 µM	> 100	> 100	> 100 µM	> 100 µM	–	–	–	–	–
N=c1oc2ccc3ccccc3c2cc1-c1nc2ccccc2c(=O)[nH]1	–	34	68.5	> 100	> 100 µM	> 100	> 100	67.2 µM	> 100 µM	> 100 µM	> 100	> 100	44.1 µM	32.8 µM	–	–	–	–	–
CCN(CC)CCC(=O)/C=C/c1ccc(Cl)c(Cl)c1	–	> 10	> 10	> 10	–	> 10	> 10	> 10 µM	> 10 µM	–	9.43	5.86	–	–	–	–	–	–	–
COc1cc2ncnc(NS(=O)(=O)c3cc4ccccc4s3)c2cc1OC	> 100	> 100	> 100	> 100	> 100 µM	> 100	> 100	> 100 µM	> 100 µM	> 100 µM	> 100	> 100	> 100 µM	> 100 µM	–	–	–	–	–
Cc1cccc2c(=O)c3cccc([C@H](C)C(=O)O)c3oc12	> 100	> 100	> 100	> 100	> 100 µM	> 100	> 100	> 100 µM	> 100 µM	> 100 µM	> 100	> 100	> 100 µM	> 100 µM	–	–	–	–	–
O=C(COc1cc(=O)oc2ccccc12)c1ccccc1	> 100	36.4	> 100	–	> 100 µM	> 100	49	> 100 µM	87.4 µM	> 100 µM	> 100	> 100	44.1 µM	–	–	–	–	–	–
Nc1cc(CO)cc(Nc2c3ccccc3nc3ccccc23)c1	46.6	31.9	27.7	23.8	31.5 µM	35.1	34.9	29.7 µM	25.3 µM	30.8 µM	> 100	34.4	34.5 µM	32.3 µM	–	–	–	–	–
Cc1ccc([N+](=O)[O-])cc1S(=O)(=O)Nc1ccc(C2=NN(S(=O)(=O)c3cc([N+](=O)[O-])ccc3C)C(c3cccs3)C2)cc1 (stereo not given)	78.6	> 100	> 100	25.3	> 100 µM	> 100	> 100	> 100 µM	69.2 µM	> 100 µM	66.1	> 100	47.5 µM	> 100 µM	–	–	–	–	–
CC1OC(NCCNCCNC2OC(C)C(O)C(O)C2O)C(O)C(O)C1O (stereo not given)	> 100	> 100	> 100	> 100	> 100 µM	> 100	> 100	> 100 µM	> 100 µM	> 100 µM	> 100	> 100	> 100 µM	> 100 µM	–	–	–	–	–
CCO/N=C\c1ccc2oc(-c3ccccc3)cc(=O)c2c1	21.9	37.2	24.4	0.526	> 48.7 µM	0.105	7.01	> 85.9 µM	16.3 µM	5.54 µM	1.99	63.6	33.9 µM	5.83 µM	–	–	–	–	–
CC(NC(=O)CCS)C(=O)NC(C)C(=O)NC(Cc1c[nH]c2ccccc12)C(=O)NC(Cc1c[nH]cn1)C(=O)NC(CO)C(=O)NC(Cc1c[nH]c2ccccc12)C(=O)NCCCCC(=O)NC(C)C(=O)NC(CCC(N)=O)C(=O)NC(CCCCN)C(=O)NC(C)C(=O)NC(CCCNC(=N)N)C(=O)NC(CCCCN)C(N)=O (stereo not given) ([Mpa]AAWHSW[Ava]AQKARK-NH2; configuration not given here)	> 100	> 100	> 100	> 100	> 100 µM	> 100	> 100	> 100 µM	> 100 µM	> 100 µM	> 100	64	52 µM	> 100 µM	–	–	–	–	–
COc1ccc2[nH]c3ccc4cc[n+](CCN5CCC(C6CCN(CC[n+]7ccc8ccc9[nH]c%10ccc(OC)cc%10c9c8c7)CC6)CC5)cc4c3c2c1	> 53.8	50	50	> 50	50 µM and > 58.6 µM	50	50	17.7 µM and > 100 µM	44.8 µM and 42.2 µM	41.3 µM and 60.7 µM	50	50	50 µM and 17.7 µM	50 µM and > 100 µM	> 50	34.5	6.7	31	42.5
COC(=O)[C@@]12CSC[C@]1(C(=O)OC)N[C@@H](c1ccccc1O)C2	> 100	> 100	> 100	> 100	–	> 100	> 100	> 100 µM	> 100 µM	> 100 µM	> 100	> 100	> 100 µM	> 100 µM	–	–	–	–	–
CCOC(=O)/C(C(N)=O)=C(\O)C(=O)/C=C(\O)c1ccc(Cl)cc1	> 100	39.7	33.6	32.6	31 µM	38.5	48.8	> 100 µM	> 100 µM	36.8 µM	44.5	47.9	43.1 µM	33.4 µM	–	–	–	–	–
Cc1cc(=O)[nH]c2cc(NC(=O)C(C)NC(=O)C(C)NC(=O)C(C)NC(=O)OC(C)(C)C)ccc12 (stereo not given)	> 15	> 15	> 15	> 15	> 15 µM	> 15	> 15	> 15 µM	> 15 µM	> 15 µM	> 15	> 15	> 15 µM	> 15 µM	–	–	–	–	–
CCN(CC)Cc1cc(N=Nc2c(O)ccc3c(N=Nc4ccc(O)c(CN(CC)CC)c4)c(O)ccc23)ccc1O	27.9	7.71	9.11	3.6	3.37 µM	18	22.7	7.21 µM	20 µM	7.42 µM	8.53	32.7	16.2 µM	6.96 µM	–	–	–	–	–
CC(C#N)(NO)C(C)(C#N)NO (stereo not given)	> 100	–	> 100	> 100	> 100 µM	> 100	> 100	> 100 µM	–	> 100 µM	> 100	> 100	> 100 µM	> 100 µM	–	–	–	–	–
Cc1[nH]c(=O)nc(N/N=C/c2c3ccccc3c(Cl)c3ccccc23)c1C(=O)Nc1ccc(Cl)cc1	> 100	> 100	> 100	–	> 100 µM	> 100	> 100	> 100 µM	–	> 100 µM	> 100	> 100	> 100 µM	> 100 µM	–	–	–	–	–
O=C(O)c1ccc2c(O)c(O)ccc2c1	97.9	29.3	40.8	> 64	57 µM	38.5	44.3	54.1 µM	33.5 µM	35.6 µM	13.8	> 100	–	41.4 µM	–	–	–	–	–
COc1ccc(-c2cc(-c3ccc(C)cc3)n(C3OC(COC(C)=O)C(OC(C)=O)C(OC(C)=O)C3OC(C)=O)c(=S)c2C#N)cc1 (stereo not given)	–	> 100	> 100	> 100	> 100 µM	> 100	> 100	> 100 µM	> 100 µM	> 100 µM	> 100	> 100	> 100 µM	> 100 µM	–	–	–	–	–
